The text below walks through data of US7338959B2, “Diamino-pyrimidines and their use as angiogenesis inhibitors” (SmithKline Beecham Corporation, priority 2002, dated 2008).

The target in one test is T1, GST-VEGFR2 (Homo sapiens, UniProt P35968).
T1 construct: baculovirus expressed recombinant constructs of the intracellular domains of human TIE2 tagged by GST; made in house
The test can be described thus: VEGF-R2 enzyme assay (VEGF-E), LANCE method. The settings on record: GST-VEGFR2, 75 uM ATP, biotinylated peptide. Type of test: biochemical. An excerpt: VEGF-R2 Enzyme Assay (VEGF-E)
The VEGF enzyme assay used the LANCE method (Wallac) and GST-VEGFR2, baculovirus expressed recombinant constructs of the intracellular domains of human TIE2 tagged by GST. The method measured the ability of the purified enzymes to catalyse the transfer of the γ-phosphate from ATP onto tyrosine residues in a biotinylated synthetic peptide, (biotin-aminohexyl-EEEEYFELVAKKKK-NH2). This peptide phosphorylation was detected using the following procedure: GST-VEGFR2 was incubated for 40-60 mins at room temperature with 75 uM ATP, 5 mM MgCl2, 0.1 mM DTT, 0.1 mg/mL BSA and the test compound (diluted from a 10 mM stock in DMSO for desired concentration) in 100 mM HEPES buffer. The reaction was stopped by the addition of EDTA (final concentration 50 mM). Streptavidin linked-APC (allophycocyanin, Molecular Probe) and Europium-labeled anti-phosphorylated tyrosine antibody (Wallac) were then added at the final concentration of 15 nM and 1 nM, respectively. The APC signal was measured using an ARVO multilabel counter (Wallac Berthold, Japan). The percent inhibition of activity was calculated relative to blank control wells. The concentration of test compound that inhibits 50% of activity (IC50) was interpolated using nonlinear regression (Levernberg-Marquardt) and the equation, y=Vmax (1−x/(K+x))+Y2, where “K” was equal to the IC50. The IC50 values were converted to pIC50 values, i.e., −log IC50 in Molar concentration.

In a further test the target is Recombinant GST-Tie2 (Homo sapiens, UniProt Q02763). The test can be described thus: Tie2 fluorescence polarization kinase activity assay (TIE2-FP). Type of test: biochemical. To be noted: activated Tie2, 200 μM ATP, peptide substrate. Here is the method: Tie2 Fluorescence Polarization Kinase Activity Assay: (TIE2-FP)
Activation of Recombinant Tie2 Activation:
Recombinant GST-Tie2 was activated by incubating the enzyme in 20 mM Tris-HCl, pH 7.5, 12 mM MgCl2, 100 mM NaCl, 20 μM sodium vanidate, 1 mM DTT and 300 μM ATP at room temperature for 2 hours. The activation mixture was then passed through a NAP-25 desalting column (Pharmacia Biotech cat. no. 17-0852-02) to remove the free ATP. The activated enzyme was stored as aliquots at −80° C. in 20 mM Tris-HCl, pH 7.5 and 100 mM NaCl.
The final assay conditions were 50 mM HEPES, pH 7.5, 5% DMSO (when screening compounds), 200 μM ATP, 5 mM MgCl2, 1 mM DTT, 50 μM sodium vanidate, 1 nM activated enzyme, and 200 μM peptide. IC50's of compounds were measured under subsaturating ATP (200 μM) and varing concentrations of activated Tie2 and peptide substrate (RFWKYEFWR-OH; MW 1873 Da, TFA salt). Panvera Anti-phosphotyrosine antibody (Cat#P2840) and PTK Green Tracer (Cat#P2842) were used to detect the phosphorylated peptide. Polarization was measured on a TECAN Polarion in 138-second cycles for 30 minutes at room temperature. IC50's were then determined from the % polarization using normal calculation methods.

Where a name gives a salt, the structure may show the parent alone.

T1 sequence (P35968 786-1356 limits assumed): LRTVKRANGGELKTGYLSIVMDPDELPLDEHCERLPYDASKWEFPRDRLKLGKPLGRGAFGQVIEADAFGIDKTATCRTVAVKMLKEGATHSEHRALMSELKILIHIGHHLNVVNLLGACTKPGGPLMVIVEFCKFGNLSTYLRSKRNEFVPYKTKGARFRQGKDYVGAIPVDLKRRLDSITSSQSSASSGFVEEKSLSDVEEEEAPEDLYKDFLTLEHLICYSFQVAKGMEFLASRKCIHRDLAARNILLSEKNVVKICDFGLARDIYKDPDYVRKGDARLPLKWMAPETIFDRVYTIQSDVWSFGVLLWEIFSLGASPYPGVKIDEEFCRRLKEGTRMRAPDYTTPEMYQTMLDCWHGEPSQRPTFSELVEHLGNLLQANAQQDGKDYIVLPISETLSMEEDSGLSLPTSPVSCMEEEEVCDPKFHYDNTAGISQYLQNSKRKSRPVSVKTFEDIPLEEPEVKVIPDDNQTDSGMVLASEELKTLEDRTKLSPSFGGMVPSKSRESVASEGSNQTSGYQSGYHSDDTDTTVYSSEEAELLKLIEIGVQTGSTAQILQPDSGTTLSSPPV
Recombinant GST-Tie2, sequence (Q02763 23-1124): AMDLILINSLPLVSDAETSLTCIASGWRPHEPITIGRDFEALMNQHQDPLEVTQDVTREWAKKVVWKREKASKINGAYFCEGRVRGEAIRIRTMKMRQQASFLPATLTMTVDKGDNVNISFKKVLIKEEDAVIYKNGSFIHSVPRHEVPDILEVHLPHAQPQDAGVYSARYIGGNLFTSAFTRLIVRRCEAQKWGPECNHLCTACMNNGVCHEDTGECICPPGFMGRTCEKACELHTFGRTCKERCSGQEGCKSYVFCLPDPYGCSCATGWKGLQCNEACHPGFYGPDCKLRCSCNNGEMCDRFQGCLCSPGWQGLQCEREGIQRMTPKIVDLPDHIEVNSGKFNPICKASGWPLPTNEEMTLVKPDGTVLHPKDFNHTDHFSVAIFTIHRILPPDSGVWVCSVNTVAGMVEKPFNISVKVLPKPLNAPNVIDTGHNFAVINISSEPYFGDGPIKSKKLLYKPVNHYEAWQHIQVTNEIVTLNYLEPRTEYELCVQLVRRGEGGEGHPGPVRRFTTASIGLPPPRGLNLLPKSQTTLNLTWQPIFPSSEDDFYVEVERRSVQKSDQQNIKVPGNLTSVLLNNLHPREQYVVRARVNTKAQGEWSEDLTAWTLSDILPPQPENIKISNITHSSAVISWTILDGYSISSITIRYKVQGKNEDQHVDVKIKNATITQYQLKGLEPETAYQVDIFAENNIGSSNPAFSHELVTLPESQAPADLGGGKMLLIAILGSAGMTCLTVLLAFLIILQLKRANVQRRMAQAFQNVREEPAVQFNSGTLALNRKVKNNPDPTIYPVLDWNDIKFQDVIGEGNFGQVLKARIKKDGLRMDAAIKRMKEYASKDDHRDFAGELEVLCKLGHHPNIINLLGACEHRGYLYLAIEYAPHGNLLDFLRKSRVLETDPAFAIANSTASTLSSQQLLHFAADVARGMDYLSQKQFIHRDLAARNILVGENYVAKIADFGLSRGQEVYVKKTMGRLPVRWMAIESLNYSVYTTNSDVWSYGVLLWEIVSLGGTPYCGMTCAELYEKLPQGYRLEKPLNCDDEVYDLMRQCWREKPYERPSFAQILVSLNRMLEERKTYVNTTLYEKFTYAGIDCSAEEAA

Regarding `CN(c1ccc2c(c1)nc(Nc1ccc(C(F)(F)F)cc1)n2C)c1ccnc(Nc2ccc(CS(C)(=O)=O)cc2)n1` [Example 110, N^1-Methyl-N^5-[2-(4-Methanesulfonymethyl-phenylamino)-pyrimidin-4-yl]-N^5-methyl-N^2-(4-trifluoromethyl-phenyl)-1H-benzoimidazole-2,5-diamine], the IC50 against GST-VEGFR2 and at Recombinant GST-Tie2 was < 100 nM throughout.

On to `CC(C)Nc1nc2cc(N(C)c3ccnc(Nc4cccc(OS(C)(=O)=O)c4)n3)ccc2n1C` [Example 92, hydrochloride], for which the half-maximal inhibitory concentration (IC50) against GST-VEGFR2 was in the range of 100 to 1000 nM; on Recombinant GST-Tie2 it was 1000 to 10000 nM.

For `CN(c1ccc2c(c1)nc(NC(=O)C1(c3ccc(Cl)c(Cl)c3)CC1)n2C)c1ccnc(Nc2cccc(CS(C)(=O)=O)c2)n1` [Example 229, 1-(3,4-Dichloro-phenyl)-cyclopropanecarboxylic acid ({[2-(3-methanesulfonylmethyl-phenylamino)-pyrimidin-4-yl]-methyl-amino}-methyl-1H-benzoimidazol-2-yl)-amide], the half-inhibitory concentration (IC50) fell in the range of 100 to 1000 nM against GST-VEGFR2 and 1000 to 10000 nM on Recombinant GST-Tie2.

For `CN(c1ccc2c(c1)nc(Nc1ccccc1F)n2C)c1ccnc(Nc2ccc(CS(C)(=O)=O)cc2)n1` [Example 124], the values for the half-maximal inhibitory concentration (IC50) against GST-VEGFR2 and on Recombinant GST-Tie2 were < 100 nM and 100 to 1000 nM, respectively.

For `CN(c1ccc2c(c1)nc(Nc1cc(C(F)(F)F)ccc1F)n2C)c1ccnc(Nc2ccc(CS(C)(=O)=O)cc2)n1` [Example 125], the half-maximal inhibitory concentration (IC50) at GST-VEGFR2 and on Recombinant GST-Tie2 was < 100 nM throughout.

For `CN(c1ccc2c(c1)nc(Nc1ccc(Cl)cc1)n2C)c1ccnc(Nc2ccc(CS(C)(=O)=O)cc2)n1` [Example 112], the IC50 at GST-VEGFR2 and on Recombinant GST-Tie2 was < 100 nM throughout.

On to “Thiophene-2-carboxylic acid ({[2-(3-methanesulfonylmethyl-phenylamino)-pyrimidin-4-yl]-methyl-amino}-methyl-1H-benzoimidazol-2-yl)-amide [Example 167]”, for which, on GST-VEGFR2, the VEGF-E result is listed as “+++ (+++ = pIC50 of >7.0)”. Besides, the TIE2-FP result at Recombinant GST-Tie2 is reported as “+ (+ = pIC50 of 5.0-6.0)”.

As to `CNS(=O)(=O)CCc1ccc(Nc2nccc(N(C)c3ccc4c(c3)nc(NC(C)C)n4C)n2)cc1` [Example 90, 2-(4-{4-[(2-Isopropylamino-1-methyl-1H-benzoimidazol-5-yl)-methyl-amino]-pyrimidin-2-ylamino}-phenyl)-ethanesulfonic acid methylamide hydrochloride], on GST-VEGFR2, the IC50 was < 100 nM.

For the compound “N-({[2-(3-methanesulfonylmethyl-phenylamino)-pyrimidin-4-yl]-methyl-amino}-methyl-1H-benzoimidazol-2-yl)-3,5-bis-trifluoromethyl-benzamide [Example 156]”, the VEGF-E entry at GST-VEGFR2 is “++ (++ = pIC50 of 6.0-7.0)”.

For the compound `Cc1cc(CC(=O)Nc2nc3cc(N(C)c4ccnc(Nc5ccc(CS(C)(=O)=O)cc5)n4)ccc3n2C)on1` [Example 173, N-({[2-(4-Methanesulfonylmethyl-phenylamino)-pyrimidin-4-yl]-methyl-amino}-methyl-1H-benzoimidazol-2-yl)-2-(3-methyl-isoxazol-5-yl)-acetamide], the VEGF-E entry on GST-VEGFR2 is “+++ (+++ = pIC50 of >7.0)”. Moreover, the TIE2-FP entry at Recombinant GST-Tie2 was “+ (+ = pIC50 of 5.0-6.0)”.

Consider `Cn1c(Nc2cc(C(C)(C)C)on2)nc2cc(Nc3ccnc(Nc4ccc(CS(C)(=O)=O)cc4)n3)ccc21.O=C(O)C(F)(F)F` [Example 135, N^2-(5-tert-Butyl-isoxazol-3-yl)-N^5-[2-(4-methanesulfonylmethyl-phenylamino)-pyrimidin-4-yl]-1-methyl-1-1H-benzoimidazole-2,5-diamine trifluoroacetate], for which the VEGF-E result at GST-VEGFR2 is “+++ (+++ = pIC50 of >7.0)”. Besides, the TIE2-FP entry at Recombinant GST-Tie2 is recorded as “+ (+ = pIC50 of 5.0-6.0)”.

For “(3,5-Bis-trifluoromethyl-phenyl)-N-({[2-(3-methanesulfonylmethyl-phenylamino]-pyrimidin-4-yl]-methyl-amino}-methyl-1H-benzoimidazol-2-yl)-acetamide [Example 161]”, the VEGF-E result on GST-VEGFR2 was “++ (++ = pIC50 of 6.0-7.0)”. Besides, the TIE2-FP entry on Recombinant GST-Tie2 is “+ (+ = pIC50 of 5.0-6.0)”.

In the case of `CN(c1ccc2c(c1)nc(NC(=O)Cc1ccccc1Cl)n2C)c1ccnc(Nc2ccc(CS(C)(=O)=O)cc2)n1` [Example 230, 2-(2-Chlorophenyl)-N-({[2-(4-methanesulfonylmethyl-phenylamino)-pyrimidin-4-yl]-methyl-amino}-methyl-1H-benzoimidazol-2-yl)-acetamide], the results for the half-inhibitory concentration (IC50) at GST-VEGFR2 and at Recombinant GST-Tie2 were < 100 nM and 1000 to 10000 nM, respectively.

On to `CN(c1ccc2c(c1)nc(NC(=O)C1CCCCC1)n2C)c1ccnc(Nc2cccc(CS(C)(=O)=O)c2)n1` [Example 157, Cyclohexanecarboxylic acid ({[2-(3-methanesulfonylmethyl-phenylamino)-pyrimidin-4-yl]-methyl-amino}-methyl-1H-benzoimidazol-2-yl)-amide], for which the VEGF-E entry at GST-VEGFR2 is reported as “+++ (+++ = pIC50 of >7.0)”.

In the case of `COc1cccc(CC(=O)Nc2nc3cc(N(C)c4ccnc(Nc5ccc(CS(C)(=O)=O)cc5)n4)ccc3n2C)c1OC` [Example 219, 2-(2,3-Dimethoxyphenyl)-N-(5-{[2-(4-methanesulfonylmethyl-phenylamino)-pyrimidin-4-yl]-methyl-amino}-1-methyl-1H-benzoimidazol-2-yl)-acetamide], at GST-VEGFR2, the IC50 was < 100 nM.

Turning to `Cn1c(Nc2cc(C(C)(C)C)on2)nc2cc(Nc3ccnc(Nc4cccc(CS(C)(=O)=O)c4)n3)ccc21` [Example 136, N^2-(5-tert-Butyl-isoxazol-3-yl)-N^5-[2-(3-methanesulfonylmethyl-phenylamino)-pyrimidin-4-yl]-1-methyl-1H-benzoimidazole-2,5-diamine], the concentration for half-maximal inhibition (IC50) at GST-VEGFR2 is < 100 nM; on Recombinant GST-Tie2 it was 1000 to 10000 nM.

Take `CN(c1ccc2c(c1)nc(NC(=O)Cc1cccc(F)c1F)n2C)c1ccnc(Nc2ccc(CS(C)(=O)=O)cc2)n1` [Example 226, (2,3-Difluorophenyl)-N-({[2-(4-methanesulfonylmethyl-phenylamino)-pyrimidin-4-yl]-methyl-amino}-methyl-1H-benzoimidazol-2-yl)-acetamide]: the figures for the IC50 against GST-VEGFR2 and on Recombinant GST-Tie2 were < 100 nM and 1000 to 10000 nM, respectively.

Consider `CN(c1ccc2c(c1)nc(NC(=O)Cc1ccc(F)cc1)n2C)c1ccnc(Nc2ccc(CS(C)(=O)=O)cc2)n1` [Example 206, 2-(4-Fluoro-phenyl)-N-({[2-(4-methanesulfonylmethyl-phenylamino)-pyrimidin-4-yl]-methyl-amino}-methyl-1H-benzoimidazol-2-yl)-acetamide], for which the IC50 was < 100 nM at GST-VEGFR2 and 1000 to 10000 nM on Recombinant GST-Tie2.

`CN(c1ccc2c(c1)nc(NC(=O)Cc1ccc3c(c1)OCO3)n2C)c1ccnc(Nc2ccc(CS(C)(=O)=O)cc2)n1` [Example 239, Benzo[1,3]dioxol-5-yl-N-({[2-(4-methanesulfonylmethyl-phenylamino)-pyrimidin-4-yl]-methyl-amino}-methyl-1H-benzoimidazol-2-yl)-acetamide] registered an IC50 against GST-VEGFR2 of 100 to 1000 nM.

For the compound `CN(c1ccc2c(c1)nc(NC(=O)Cc1ccccc1)n2C)c1ccnc(Nc2ccc(CS(C)(=O)=O)cc2)n1` [Example 202, Phenyl-N-({[2-(4-methanesulfonylmethyl-phenylamino)-pyrimidin-4-yl]-methyl-amino}-methyl-1H-benzoimidazol-2-yl)-acetamide], at GST-VEGFR2, the IC50 is < 100 nM.

As to `CN(c1ccc2c(c1)nc(NCc1ccc(F)cc1)n2C)c1ccnc(Nc2cccc(S(N)(=O)=O)c2)n1` [Example 11, 3-(4-{[2-(4-Fluoro-benzylamino)-1-methyl-1H-benzoimidazol-5-yl]-methyl-amino}-pyrimidin-2-ylamino)-benzenesulfonamide hydrochloride], the IC50 against GST-VEGFR2 was < 100 nM.

For the compound `CN(c1ccc2c(c1)nc(NC(=O)Nc1ccccc1)n2C)c1ccnc(Nc2ccc(CS(C)(=O)=O)cc2)n1` [Example 142, N-(1-methyl-5-{methyl[2-({4-[(methylsulfonyl)methyl]phenyl}amino)pyrimidin-4-yl]amino}-1H-benzimidazol-2-yl)-N′-phenylurea], at GST-VEGFR2, the concentration for half-maximal inhibition (IC50) was < 100 nM.
